Results taken from patent publication US8980830B2 (priority 2007, dated 2015).
Like-named read-outs stand apart in the source and are kept apart here. Bridge positions count the residues as written; N and C are the ends. Square brackets hold non-standard residues; d marks the D form. Ends that are not written are not given here. Peptide text beside a SMILES is read from it. * marks the point of attachment. ξ: configuration not given here. X1 = CC(C)CCC[C@@H](C)[C@H]1CC[C@H]2[C@@H]3CC=C4C[C@@H](OC(=O)CCOCCOCCOCCOCCOCCOCCOCCOCCOCCOCCOCCOCCNC(=O)CSCCC(=O)*)CC[C@]4(C)[C@H]3CC[C@]12C; MCA = alpha-methylhydrocinnamic acid (2-methyl-3-phenylpropanoic acid); Abu(4-SO3H) = N[C@@H](CCS(=O)(=O)O)C(=O)O; Palmitoyl = CCCCCCCCCCCCCCCC(=O)*; PhLac = O=C(O)[C@@H](O)Cc1ccccc1; Aad = N[C@@H](CCCC(=O)O)C(=O)O; ξPhLac = O=C(O)C(O)Cc1ccccc1

Legend:
[1] = molecular target: GLP-1 Receptor (Homo sapiens, UniProt P43220); test: Functional assay, cAMP induction (luciferase reporter, HEK293) at GLP-1 receptor; assay type: cell-based
Chain of GLP-1 Receptor (P43220 24-463): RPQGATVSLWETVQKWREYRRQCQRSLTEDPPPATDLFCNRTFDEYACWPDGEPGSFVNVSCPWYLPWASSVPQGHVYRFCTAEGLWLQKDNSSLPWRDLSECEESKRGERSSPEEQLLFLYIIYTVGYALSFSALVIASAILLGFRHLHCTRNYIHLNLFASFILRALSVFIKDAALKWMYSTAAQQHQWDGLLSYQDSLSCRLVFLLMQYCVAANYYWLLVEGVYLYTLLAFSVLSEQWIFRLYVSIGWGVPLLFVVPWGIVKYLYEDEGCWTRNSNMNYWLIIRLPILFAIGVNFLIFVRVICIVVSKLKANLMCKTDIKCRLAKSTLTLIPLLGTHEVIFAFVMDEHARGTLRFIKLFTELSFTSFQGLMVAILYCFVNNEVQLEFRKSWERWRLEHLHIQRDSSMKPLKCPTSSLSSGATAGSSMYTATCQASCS

[2] = molecular target: Glucagon Receptor (Homo sapiens, UniProt P47871); test: cAMP inhibition: antagonism of glucagon-induced cAMP at glucagon receptor; assay type: cell-based; parameters: expressed in transfected cells; host or cells: HEK293; conditions: for IC50 (nM) (cAMP, inhibit 0.2 mM Glucagon): Table 12
Chain of Glucagon Receptor (P47871 26-477): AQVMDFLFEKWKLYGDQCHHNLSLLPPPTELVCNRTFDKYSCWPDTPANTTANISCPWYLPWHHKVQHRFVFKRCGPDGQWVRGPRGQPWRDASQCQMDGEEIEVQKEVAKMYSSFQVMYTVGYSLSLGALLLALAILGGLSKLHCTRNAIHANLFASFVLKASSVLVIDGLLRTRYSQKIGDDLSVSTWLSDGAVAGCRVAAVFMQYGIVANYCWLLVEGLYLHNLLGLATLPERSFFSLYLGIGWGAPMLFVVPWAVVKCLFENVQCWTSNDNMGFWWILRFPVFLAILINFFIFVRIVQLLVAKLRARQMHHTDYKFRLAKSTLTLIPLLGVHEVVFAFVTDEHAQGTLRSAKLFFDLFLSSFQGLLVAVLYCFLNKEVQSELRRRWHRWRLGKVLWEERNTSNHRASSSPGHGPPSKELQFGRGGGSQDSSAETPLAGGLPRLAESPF

Compound: CSCC[C@@H]1NC(=O)[C@H](CC(C)C)NC(=O)[C@H](Cc2c[nH]c3ccccc23)NC(=O)[C@@H](NC(=O)[C@@H](NC(=O)[C@H](Cc2ccccc2)NC(=O)[C@H](CC(=O)O)NC(=O)[C@H](CCC(N)=O)NC(=O)[C@H](C)NC(=O)[C@H](CCCNC(=N)N)NC(=O)[C@H](CCCNC(=N)N)NC(=O)[C@H](CCC(=O)O)NC(=O)[C@H](CC(=O)O)NC(=O)[C@H](CC(C)C)NC(=O)[C@H](Cc2ccc(O)cc2)NC(=O)[C@H](CCCCN)NC(=O)[C@H](CO)NC(=O)[C@H](Cc2ccc(O)cc2)NC(=O)[C@H](CC(=O)O)NC(=O)[C@H](CO)NC(=O)[C@@H](NC(=O)[C@@H](O)Cc2ccccc2)[C@@H](C)O)C(C)C)CCC(=O)NCCCC[C@@H](C(=O)N[C@H](C(N)=O)[C@@H](C)O)NC1=O (H-[PhLac]TSDYSKYLDERRAQDFVEWLMKT-NH2; lactam 19-23)
- EC50 ([1]; GLP-1 agonism EC50 (nM), Table 17): 289 ± 149 nM

Compound: CSCC[C@H](NC(=O)[C@H](CC(C)C)NC(=O)[C@H](Cc1c[nH]c2ccccc12)NC(=O)[C@H](CCC(N)=O)NC(=O)[C@@H](NC(=O)[C@H](Cc1ccccc1)NC(=O)[C@H](CC(=O)O)NC(=O)[C@H](CCC(N)=O)NC(=O)[C@H](C)NC(=O)[C@H](CCCNC(=N)N)NC(=O)[C@H](CCCNC(=N)N)NC(=O)[C@@H]1CCC(=O)NCCCC[C@H](NC(=O)[C@H](CO)NC(=O)[C@H](Cc2ccc(O)cc2)NC(=O)[C@H](CC(=O)O)NC(=O)[C@H](CO)NC(=O)[C@@H](NC(=O)[C@@H](N)Cc2ccccc2)[C@@H](C)O)C(=O)N[C@@H](Cc2ccc(O)cc2)C(=O)N[C@@H](CC(C)C)C(=O)N[C@@H](CC(=O)O)C(=O)N1)C(C)C)C(=O)N[C@@H](CC(N)=O)C(=O)N[C@H](C(=O)NCC(=O)N1CCC[C@H]1C(=O)N[C@@H](CO)C(=O)N[C@@H](CO)C(=O)NCC(=O)N[C@@H](C)C(=O)N1CCC[C@H]1C(=O)N1CCC[C@H]1C(=O)N1CCC[C@H]1C(=O)N[C@@H](CO)C(N)=O)[C@@H](C)O [D9, K12E16(Lactam)] (H-FTSDYSKYLDERRAQDFVQWLMNTGPSSGAPPPS-NH2; lactam 7-11; N-terminus assumed)
- EC50 ([1]; GLP-1 (nM), Table 13, GLP-1 agonist activity): 119 nM
- EC50 ([1]; GLP-1 EC50 (nM), Table 15): 18 nM
- IC50 ([2]; Table 13, glucagon antagonist activity, read-out: Glu): 828 nM

Compound: CSCC[C@H](NC(=O)[C@H](CC(C)C)NC(=O)[C@H](Cc1c[nH]c2ccccc12)NC(=O)[C@H](CCC(N)=O)NC(=O)[C@@H](NC(=O)[C@H](Cc1ccccc1)NC(=O)[C@H](CC(=O)O)NC(=O)[C@@H]1CCCCNC(=O)CC[C@H](NC(=O)[C@H](CC(=O)O)NC(=O)[C@H](CC(C)C)NC(=O)[C@H](Cc2ccc(O)cc2)NC(=O)[C@H](CCCCN)NC(=O)[C@H](CO)NC(=O)[C@H](CCCCNC(=O)CCSCC(=O)NCCOCCOCCOCCOCCOCCOCCOCCOCCOCCOCCOCCOCCC(=O)O[C@H]2CC[C@@]3(C)C(=CC[C@H]4[C@@H]5CC[C@H]([C@H](C)CCCC(C)C)[C@@]5(C)CC[C@@H]43)C2)NC(=O)[C@H](CC(=O)O)NC(=O)[C@H](CO)NC(=O)[C@@H](NC(=O)[C@@H](O)Cc2ccccc2)[C@@H](C)O)C(=O)N[C@@H](CCCNC(=N)N)C(=O)N[C@@H](CCCNC(=N)N)C(=O)N[C@@H](C)C(=O)N1)C(C)C)C(=O)N[C@@H](CC(=O)O)C(=O)N[C@H](C(N)=O)[C@@H](C)O [K10-chol G(6-29), [PLA6, K10(COCH2CH2S-Chol), E16K20(lactam), D28]G(6-29) amide] (H-[PhLac]TSDK(X1)SKYLDERRAKDFVQWLMDT-NH2; lactam 11-15)
- EC50 ([1]; GLP-1 agonism EC50 (nM), Table 23, standard deviation in ( )): 35.3 nM

Compound: CSCC[C@H](NC(=O)[C@H](CC(C)C)NC(=O)[C@H](Cc1c[nH]c2ccccc12)NC(=O)[C@H](CCC(N)=O)NC(=O)[C@@H](NC(=O)[C@H](Cc1ccccc1)NC(=O)[C@H](CC(=O)O)NC(=O)[C@@H]1CCCCNC(=O)CC[C@H](NC(=O)[C@H](CC(=O)O)NC(=O)[C@H](CC(C)C)NC(=O)[C@H](Cc2ccc(O)cc2)NC(=O)[C@H](CCCCN)NC(=O)[C@H](CO)NC(=O)[C@H](Cc2ccc(O)cc2)NC(=O)[C@H](CC(=O)O)NC(=O)[C@H](CO)NC(=O)[C@@H](NC(=O)[C@H](Cc2ccccc2)OC(=O)[C@@H](NC(=O)CNC(=O)[C@H](CCC(=O)O)NC(=O)[C@H](C)N)[C@@H](C)O)[C@@H](C)O)C(=O)N[C@@H](CCCNC(=N)N)C(=O)N[C@@H](CCCNC(=N)N)C(=O)N[C@@H](C)C(=O)N1)C(C)C)C(=O)N[C@@H](CC(=O)O)C(=O)N[C@H](C(N)=O)[C@@H](C)O [[A2E3-O-PLA6, D9, E16K20(Lactam), D28] G(2-29)] (H-AEGT[PhLac]TSDYSKYLDERRAKDFVQWLMDT-NH2; lactam 15-19; N-terminus assumed)
- EC50 ([1]; GLP-1 agonism EC50 (nM), Table 24): 18 ± 2.14 nM

Compound: CCCCCCCCCCCCCCCC(=O)O[C@@H](Cc1ccccc1)C(=O)N[C@H](C(=O)N[C@@H](CO)C(=O)N[C@@H](CC(=O)O)C(=O)N[C@@H](Cc1ccc(O)cc1)C(=O)N[C@@H](CO)C(=O)N[C@@H](CCCCN)C(=O)N[C@@H](Cc1ccc(O)cc1)C(=O)N[C@@H](CC(C)C)C(=O)N[C@@H](CC(=O)O)C(=O)N[C@H]1CCC(=O)NCCCC[C@@H](C(=O)N[C@@H](CC(=O)O)C(=O)N[C@@H](Cc2ccccc2)C(=O)N[C@H](C(=O)N[C@@H](CCC(N)=O)C(=O)N[C@@H](Cc2c[nH]c3ccccc23)C(=O)N[C@@H](CC(C)C)C(=O)N[C@@H](CCSC)C(=O)N[C@@H](CC(=O)O)C(=O)N[C@H](C(N)=O)[C@@H](C)O)C(C)C)NC(=O)[C@H](C)NC(=O)[C@H](CCCNC(=N)N)NC(=O)[C@H](CCCNC(=N)N)NC1=O)[C@@H](C)O [[C16FA-O-PLA6, E16K20(lactam),D28]G(6-29)] (Palmitoyl-[PhLac]TSDYSKYLDERRAKDFVQWLMDT-NH2; lactam 11-15)
- EC50 ([1]; GLP-1 agonism EC50 (nM), Table 22): 45.7 ± 13.8 nM

Compound: CC[C@H](C)[C@H](NC(=O)[C@H](Cc1ccccc1)NC(=O)[C@H](CC(=O)O)NC(=O)[C@H](CCCCN)NC(=O)[C@H](C)NC(=O)[C@H](C)NC(=O)[C@H](CCC(N)=O)NC(=O)[C@@H]1CCC(=O)NCCCC[C@H](NC(=O)[C@H](CO)NC(=O)[C@H](Cc2ccc(O)cc2)NC(=O)[C@H](CC(=O)O)NC(=O)[C@H](CO)NC(=O)[C@@H](NC(=O)C(O)Cc2ccccc2)[C@@H](C)O)C(=O)N[C@@H](Cc2ccc(O)cc2)C(=O)N[C@@H](CC(C)C)C(=O)N[C@@H](CC(=O)O)C(=O)N1)C(=O)N[C@@H](C)C(=O)N[C@@H](Cc1c[nH]c2ccccc12)C(=O)N[C@@H](CC(C)C)C(=O)N[C@@H](CCSC)C(=O)N[C@@H](CC(=O)O)C(=O)N[C@H](C(N)=O)[C@@H](C)O (some centres unmarked) [[PLA6, K12E16(lactam), GLP(23-32)]G(6-29)] (H-[ξPhLac]TSDYSKYLDEQAAKDFIAWLMDT-NH2; lactam 7-11)
- GLP-1 agonism EC50(nM) ([1]; Table 18): No agonism

Compound: CSCC[C@H](NC(=O)[C@H](CC(C)C)NC(=O)[C@H](Cc1c[nH]c2ccccc12)NC(=O)[C@H](CCC(N)=O)NC(=O)[C@@H](NC(=O)[C@H](Cc1ccccc1)NC(=O)[C@H](CC(=O)O)NC(=O)[C@H](CCC(N)=O)NC(=O)[C@H](C)NC(=O)[C@H](CCCNC(=N)N)NC(=O)[C@H](CCCNC(=N)N)NC(=O)[C@H](CO)NC(=O)[C@H](CC(=O)O)NC(=O)[C@H](CC(C)C)NC(=O)[C@H](Cc1ccc(O)cc1)NC(=O)[C@H](CCCCN)NC(=O)[C@H](CO)NC(=O)[C@H](Cc1ccc(O)cc1)NC(=O)[C@H](CCS(=O)(=O)O)NC(=O)[C@H](CO)NC(=O)[C@@H](NC(=O)[C@@H](N)Cc1ccccc1)[C@@H](C)O)C(C)C)C(=O)N[C@@H](CC(N)=O)C(=O)N[C@H](C(N)=O)[C@@H](C)O [[hCys^9(SO3H)]Glucagon(aa6-29)-NH2] (H-FTS[Abu(4-SO3H)]YSKYLDSRRAQDFVQWLMNT-NH2; N-terminus assumed)
- cAMP pA2 ([2]; Table 9): 7.16 ± 0.51

Compound: CSCC[C@H](NC(=O)[C@H](CC(C)C)NC(=O)[C@H](Cc1c[nH]c2ccccc12)NC(=O)[C@H](CCC(N)=O)NC(=O)[C@@H](NC(=O)[C@H](Cc1ccccc1)NC(=O)[C@H](CC(=O)O)NC(=O)[C@H](CCC(N)=O)NC(=O)[C@H](C)NC(=O)[C@H](CCCNC(=N)N)NC(=O)[C@H](CCCNC(=N)N)NC(=O)[C@H](CO)NC(=O)[C@H](CC(=O)O)NC(=O)[C@H](CC(C)C)NC(=O)[C@H](Cc1ccc(O)cc1)NC(=O)[C@H](CCCCN)NC(=O)[C@H](CO)NC(=O)[C@H](Cc1ccc(O)cc1)NC(=O)[C@H](CCCC(=O)O)NC(=O)[C@H](CO)NC(=O)[C@@H](NC(=O)[C@@H](N)Cc1ccccc1)[C@@H](C)O)C(C)C)C(=O)N[C@@H](CC(N)=O)C(=O)N[C@H](C(N)=O)[C@@H](C)O [[hGlu^9]Glucagon(aa6-29)-NH2] (H-FTS[Aad]YSKYLDSRRAQDFVQWLMNT-NH2; N-terminus assumed)
- cAMP pA2 ([2]; Table 9): 6.27 ± 0.11

Compound: FTSDYSKYLDSRRAQDFVQWLMNT-NH2 [Glucagon(aa6-29)-NH2]
- cAMP pA2 ([2]; Table 9): 6.94 ± 0.63

Compound: FTSEYSKYLDERRAQDFVQWLMNTGPSSGAPPPS-NH2 [E9, K12, E16]
- IC50 ([2]; Glucagon antagonism IC50 (nM, inhibit 0.2-0.8 nM glucagon), Table 16, combined results of three assays): 762 ± 127 nM

Compound: FTSKYSKYLDSRRAQDFVQWLMNT-NH2 [[Lys^9]Glucagon(aa6-29)-NH2]
- cAMP pA2 [2]: 6.58 ± 0.60

Compound: [MCA^6, E^9, C^24(20kDaPEG)]Glucagon(aa6-29)-NH2 ([MCA]TSEYSKYLDSRRAQDFVC(PEG 20 kDa)WLMNT-NH2)
- IC50 (nM) (cAMP, inhibit 0.2 mM Glucagon) [2]: no antagonism

Compound: [PLA6, E9,E16K20(Lactam), C24(20 kDa)]G(6-29) ([PhLac]TSEYSKYLDERRAKDFVC(PEG 20 kDa)WLMNT; lactam 11-15)
- Glucagon antagonism IC50(nM) (inhibit 0.2-0.8 nM glucagon) [2]: Not detect

Compound: [PLA6, K12E16(Lactam), D28,CEX-C40(20 kDa)]G(6-40) ([PhLac]TSDYSKYLDERRAQDFVQWLMDTGPSSGAPPPSC(PEG 20 kDa); lactam 7-11)
- Glucagon antagonism IC50(nM) (inhibit 0.2-0.8 nM glucagon) [2]: Not antagonist (n = 1)

Compound: [PLA^6, C^8(1.2kDaPEG), E^9]Glucagon(aa6-29)-NH2 ([PhLac]TC(PEG 1.2 kDa)EYSKYLDSRRAQDFVQWLMNT-NH2)
- IC50 (nM) (cAMP, inhibit 0.2 mM Glucagon) [2]: no antagonism
